Row | Structure (SMILES) | melting point [°C]
1 | CCN1CC(c2ccccc2)=C(OCCN2CCCCC2)C1=O | 120
2 | Nc1sccc1C(=O)c1ccccc1 | 150 to 152
3 | CN(C)C1CCC(Nc2ncnc3sc4c(c23)CCC4)CC1 (stereo unspecified) | 97 to 98
4 | CSc1nnc(C(C)(C)C)c(=O)n1C | 90 to 100
5 | COC(=O)NN=C1CCCCCC1 | 75
6 | C#Cc1ccc(OC)c(OC)c1 | 71 to 72
7 | COCc1cc(C(=O)NC(C)(C)C)c(C(=O)OC)cn1 | 138 to 142
8 | CC(C)N1CCN(c2ccc(C(=O)NC3(C(=O)NCC#N)CCCCC3)cc2)CC1 | 218 to 220
9 | C[Si](C)(C)c1ccc(N)cc1 | 123 to 124
10 | O=C(Nc1cccc(C(F)(F)F)c1)C(F)(F)F | 69
11 | C=CC(=O)c1ccc(O)cc1 | 99 to 103
12 | O=S1NC(Cc2coc3ccccc23)=NO1 (stereo unspecified) | 138 to 140
13 | COC(=O)NC(=NS(=O)(=O)NC(C)C)SCc1ccccc1 | 76 to 78
14 | Cc1cc(C(N)=O)ccc1O[C@@H]1CCNC[C@H]1O (relative stereo) | 210 to 212
15 | CC(C)(C)c1ccc(C2CCCN3CCS(=O)(=O)N=C23)cc1 (stereo unspecified) | 232 to 236
16 | C=C1CCC2(c3c[nH]cn3)Cc3ccccc3C12 (stereo unspecified) | 167 to 174
17 | Cc1n[nH]c2c1C(=O)CC(c1cc(Cl)sc1Cl)C2 (stereo unspecified) | 167 to 168
18 | Cc1c(F)c([N+](=O)[O-])cc2oc(=O)[nH]c12 | 194 to 196
19 | Clc1ccc(NC2=NCCN2)c(Cl)c1 | 138 to 139
20 | CN(C)Cc1ccc(CSCCNC2=NS(=O)(=O)N=C2N2CCOCC2)o1 | 122 to 127
21 | CCCCc1cc(=O)oc2cc(O)cc(O)c12 | 236 to 237
22 | Nc1nc2c(Cl)cc(C(F)(F)F)cc2[nH]c1=O | 270 to 272
23 | O=Cc1ccc2c(c1)S(=O)c1ccccc1CC2 (stereo unspecified) | 158 to 160

Row | Structure (SMILES) | melting point [°C]
24 | CNCCOc1cccc2c1CC(=O)N2 | 153 to 156
25 | Cc1nc(C)c2cc(-c3c(Cl)cccc3Cl)c(N)nc2n1 | 239 to 240
26 | CCOCCOCCOCCOc1ccc(OCCCCCCCCCCCCOc2ccccc2)cc1N(CC(=O)O)CC(=O)O | 58 to 61
27 | O=C1N=c2cc(O)c(O)c(O)c2=NC1=O | > 350
28 | OCC1COC2(CCN(CCc3ccccc3)CC2)O1 (stereo unspecified) | 96
29 | CC(C)(C)N(O)C(=O)C1CCC(C2CCCCC2)CC1 (stereo unspecified) | 119 to 120
30 | Cc1cccc(C(=O)Nc2c[nH]nc2C(=O)NCC(C)(C)C#N)n1 | 250 to 251
31 | Cc1nc(N2CCN(c3ccccc3)C2=O)sc1C(=O)O | 286 to 289
32 | CC(C)CC(CS)C(=O)NCC(=O)NC(CCCNC(=N)N)C(=O)O (stereo unspecified) | 132 to 146
33 | COc1ccc(-n2c(CF)nc3ccc(N)cc3c2=O)c(C)c1 | 200 to 202
34 | CCOC(=O)c1c[nH]c(=S)n1C1CCc2cc(F)cc(F)c2C1 (stereo unspecified) | 187 to 189
35 | Cc1c(CO)c(CO)c2n1Cc1ccccc1C2 | 99 to 101
36 | CCCCCCCCC(=O)OCc1c(Cl)ccc2cc(Cl)cnc12 | 92
37 | C#CCNC1CCc2ccc([N+](=O)[O-])cc21 (stereo unspecified) | 37 to 39
38 | O=C1c2ccccc2C(=O)N1Cc1noc(-c2ncn3c2[C@@H]2CCCN2C(=O)c2sccc2-3)n1 | 248 to 250
39 | CCn1ncc2c1ncc1c(=O)[nH]c3ncnn3c12 | 175 to 177
40 | N#Cc1ccc(NC2CCN(Cc3cc(F)cc(C(F)(F)F)c3)CC2)nn1 | 151
41 | COCC1(F)CCN(c2ccc(N3C[C@H](CNC(C)=O)OC3=O)cc2F)CC1 | 169 to 171
42 | CC1(C)OCCN1C(=O)C=Cc1ccccc1 | 107 to 109
43 | CC(C)(C)C(=O)Oc1ccc(C(=O)CBr)cc1OC(=O)C(C)(C)C | 64 to 66
44 | COc1nc(O)cc(=O)n1C | 170 to 171
45 | CC(C)(C)C(=O)C(N)=O | 69 to 70

Further lines, results first:

Row | melting point [°C] | Structure (SMILES)
46 | 156 to 157 | CCOC(=O)c1csc(/C=C/c2cn(-c3ccccc3)nc2OCc2ccc(OCc3nc(-c4ccco4)oc3C)c(OC)c2)n1
47 | 238 to 240 | O=C(O)Cc1cc(C(=O)c2ccc3cc(-c4ccccc4)[nH]c3c2)sc1-c1ccccc1
48 | 185 to 188 | N#Cc1cccc(C2=Nc3ccc(C=Cc4ccccc4)cc3NC(=O)C2)c1
49 | 110 to 111 | CCOc1nn(-c2ccc(C(F)(F)F)cn2)cc1CCCOc1cccc(OC)c1CCC(=O)O
50 | 230 to 233 | N#Cc1ccc2nc(C(=O)NCc3ccnc(OCC4CCOC4)c3)[nH]c(=O)c2c1 (stereo unspecified)
51 | 194 to 201 | COC(=N)c1ccc(-c2cc3ncn([C@H](C)[C@](O)(Cn4cncn4)c4ccc(F)cc4F)c(=O)c3s2)cc1
52 | 218 to 219 | O=C(NCc1ccc(Cl)c(Cl)c1)c1cn2c(=O)n(Cc3ccc(Cl)cc3)c(=O)cc2s1
53 | 165 to 166 | CN(CCc1ccc(NS(C)(=O)=O)cc1)Cc1ccc2cc(NS(C)(=O)=O)ccc2n1
54 | 236 to 237 | COc1ccc(Cl)c(S(=O)(=O)NC(=O)c2cn3cc(C(F)(F)F)ncc3n2)c1
55 | 231 to 233 | CCNC(=O)C1CCN(c2cc(-c3ccc(Cl)cc3)nc3ccccc23)CC1
56 | 157 to 159 | O=C(NCCCCN1CCC(c2ccc3c(c2OCCO)CCCC3)CC1)c1sc(-c2ccc(C(F)(F)F)cc2)nc1CO
57 | 139 to 142 | CS(=O)(=O)c1ccc(-c2cccn2-c2ccc(Cl)c(Cl)c2)cc1
58 | 134 to 136 | COC(=O)c1ccc(-c2ccc(-c3ccccc3)c(-c3ccc4c(c3)C(C)(C)CCC4(C)C)c2)cc1O
59 | 271 to 272 | COc1cc(OC)c2c(=O)[nH]c(-c3ccc(OC)c(-c4ccc(C(=O)N(C)C)cc4Cl)n3)nc2c1
60 | 130 to 134 | Cc1cc(Cl)ccc1OCC(=O)N1Cc2ccc(C(=O)c3cccc4ccccc34)n2Cc2ccccc21
61 | 70.2 to 74.3 | FCc1cccc(C#CCCc2ccc3ccccc3n2)n1
62 | 93 to 94 | Cc1nccn1CCCc1ccc(OCc2coc(/C=C/c3ccccc3)n2)cc1
63 | 208 to 210 | COc1cc2ncnc(N3CCN(C(=S)Nc4ccccn4)CC3)c2cc1OC
64 | 99 to 100 | CCOC(=O)c1csc(C)c1N(CC)c1nc(C)cc(C)n1

Row | melting point [°C] | Structure (SMILES)
65 | 126 to 128 | COC(=O)C(=Cc1cc(OC)cc(OC)c1)c1ccc(Oc2ccc(C=C3SC(=O)NC3=O)cc2)cc1
66 | 194 to 195 | O=C(Nc1ccc(Cl)c(Cl)c1)NS(=O)(=O)c1ccccc1
67 | 75 to 79 | O=S(=O)(NC=NCCCOc1cccc(CN2CCCCC2)c1)c1ccc(Cl)cc1
68 | 223 | CC(C)(C)c1cc(-c2cc(-c3ccc(C(=O)O)cc3)ccc2OCCO)ccc1N1CCCC1
69 | 270 to 275 | Cc1[nH]c(/C=C2\C(=O)Nc3cc(NC(=O)NC(=O)c4ccccc4)ccc32)c(C)c1C(=O)O
70 | 117 to 118 | CC(=O)NCCc1ccc(CC(=O)O)cc1
71 | 133 to 134 | CC[N+](CC)(CC)C1CC(=O)N1C(C(=O)OCc1ccc([N+](=O)[O-])cc1)=C([O-])CCOC(=O)c1ccccc1 (stereo unspecified)
72 | 107 to 108 | CCc1cc(C(=O)NCc2ccc(-c3ccc(OC(F)F)cc3)cc2)n(C)n1
73 | 70 to 81 | COc1ccc(CC2c3cc(O)c(OC)cc3CCN2CC2CC2)cc1O (single isomer, unassigned; (+))
74 | 210 to 213 | COc1cc(COc2ccc3nc(NC(=O)Oc4ccccc4)cn3n2)cc(OC)c1OC
75 | 175 to 176 | Clc1ccc2c(c1)C(n1ccnc1)c1ccccc1CS2 (stereo unspecified)
76 | 70 to 72 | CCN(CC)c1ccc(C=O)c(OCCN2CCCCC2)c1
77 | 76 to 77 | CN1c2ccccc2[C@H]2Cc3ccccc3[C@H]21 (relative stereo)
78 | 210 to 211 | CC(CN(C)C)Oc1ccc(-c2nn(CC(=O)O)c3ncccc23)cc1 (stereo unspecified)
79 | 197 | CC(C)c1ccc(S(=O)(=O)n2c(Cc3ccc(C(=O)O)c(F)c3)cc3cc(C(F)(F)F)ccc32)cc1
80 | 108 to 109 | CN(C)CCNC(=O)C(Sc1nc2cc(Cl)ccc2s1)c1ccccc1 (stereo unspecified)
81 | 182 to 183 | CC(=O)N(CCOc1cccc2ccccc12)c1ccc(C(=O)O)cc1
82 | 125 to 127 | CCc1ccc(NC(=O)OCc2ccccc2)nc1
83 | 136 to 138 | Cc1cc(NCCOC(=O)c2ccccc2)c2[nH]ncc2n1

Row | melting point [°C] | Structure (SMILES)
84 | 306 | CS(=O)(=O)c1cc(CCC(=O)O)cc(-c2nc(=O)c3ccccc3s2)n1
85 | 100 | CNC(=O)[C@@H]1C[C@@H](OCc2ccccc2)CN1S(=O)(=O)c1ccc(Cl)c(COc2cccc3c(-n4ccnc4)cc(C)nc23)c1Cl
86 | 54 to 57 | COP(=O)(Cc1c(C)ccc2ccccc12)OC
87 | 145 to 147 | CC(C)(C)Sc1cccc(CCC(O)c2ccccc2)c1NC(=O)CC1c2ccccc2Oc2ccccc21 (stereo unspecified)
88 | > 270 | Nc1cc(Sc2cccc3cnccc23)c(Cl)cc1[N+](=O)[O-]
89 | 199 to 200 | NC(=O)c1sc2ncnc(-c3cccc(NC(=O)Nc4cccnc4)c3)c2c1N
90 | 105 to 122 | O=C1c2ccccc2C(=O)N1CCCN1CCN(c2ccccc2)CC1
91 | 213 | Cc1cc(-c2ccc(Cl)c(Cl)c2)nc(-n2cnc(-c3cccc(S(C)(=O)=O)c3)c2)n1
92 | 142 to 143 | CC(=O)Nc1cccc(OCc2ccccc2)c1C
93 | 110 to 112 | CC(C)(CO)C(O)C(Oc1ccc(Cl)cc1)n1cncn1 (stereo unspecified)
94 | 181 | CC(=O)Nc1ccc(C(=O)N2CC3CC(CN(Cc4ccc(Cl)cc4)C3)C2)cc1
95 | 155 | OCC1OC(n2cnc3c(Nn4ccc5ccccc54)ncnc32)C(O)C1O (stereo unspecified)
96 | 273 to 276 | O=C(C=CC=C(c1ccc(Cl)cc1)c1ccc(Cl)cc1)Nc1ccc(C(=O)O)cc1
97 | 141 | CCn1cc(C(=O)Nc2ccc(C(C)C)cc2)cn1
98 | 135 to 138 | CC(Oc1cnn(-c2ccc(Cl)cc2)c(=O)c1Cl)c1ccc(Cl)cc1 (stereo unspecified)
99 | 156 to 157 | COc1cc(O)c2c(=O)c(OC)c(-c3ccc(OCc4ccccc4)c(OC)c3)oc2c1
100 | 230 to 232 | Cc1[nH]cnc1CC1CCc2c(c3ccccc3n2C)C1=O (single isomer, unassigned; (+))
101 | 165 to 167 | Cc1ncn(Nc2ccccc2)c1-c1ccccc1

— a melting point compilation (Tetko et al.; mined from patent text by program, amines drawn as free bases though some values may be those of a salt)
